In patent US7429291B2, “Print ink containing a plurality of fluorescent coloring materials and inkjet recording method” (Canon Kabushiki Kaisha, priority 2003, dated 2008):

Columns and labels:
[1] = Light absorption spectrum of coloring material; assay type: physicochemical
Procedure: Next, the present invention will be described more concretely with reference to the examples and the reference examples. Here, measured values obtained with pure-water diluents of coloring materials were used for an absorption wavelength region, a maximum absorption wavelength region, and a fluorescence wavelength region. Using an absorption spectrometer, absorption wavelengths were measured.
A diluent was prepared such that the absorbance thereof was in the range of 0.5 to 0.7. A higher region from a base line as an absorption peak of the coloring material was defined as an absorption wavelength region, and the peak value was defined as a maximum absorption wavelength region. In addition, for fluorescence wavelengths, the measurement conditions were defined such that the fluorescence intensities would not exceed the measurement threshold value. Then, the measurement of fluorescence wavelengths was performed by using the diluent used in the measurement of absorbance and by fixing the excitation wavelengths of the first and second coloring materials at predetermined wavelengths. A region higher than the base line was defined as a fluorescence emission wavelength region.
The absorption wavelength regions of the first and second coloring materials were measured using the spectrophotometer U-3200, manufactured by Hitachi Ltd., after the sample was diluted with pure water 100,000 fold. The absorption wavelength region of the first coloring material ranged from 450 to 620 nm both inclusive, and the maximum absorption wavelength thereof was 565 nm. In addition, the absorption wavelength region of the second coloring material ranged from 300 to 450 nm both inclusive, and the maximum absorption wavelength thereof was 372 nm.

[2] = Fluorescence emission and excitation spectra of coloring material in evaporated ink (FP-750); assay type: physicochemical; details: excitation at 254 nm
Source text: Hereinafter, the print ink of the present invention will be described with reference to the drawings. Unless noted as a recorded image or a printed matter, the results are with an evaporated ink in which water was removed by evaporation and coloring materials are dispersed in an organic solvent. The print ink according to each embodiment of the present invention contains a first fluorescent coloring material that emits fluorescence of a predetermined wavelength that is used for measurement or determination, with excitation at a predetermined excitation wavelength, a second fluorescent coloring material that emits fluorescence with excitation at the same excitation wavelength, and a liquid medium for solving or dispersing these materials therein.
Aspect 1 is characterized in that the fluorescence emission wavelength region of the second fluorescent coloring material covers at least the peak wavelength range of the excitation spectrum of the first fluorescent coloring material measured for emission at 600 nm (see FIG. 2) and/or the absorption wavelengths in the visible region of the first fluorescent coloring material (see the bottom of FIG. 6). […] Therefore, in FIG. 2, when the predetermined fluorescence wavelength of AR52 is 600 nm (the predetermined excitation wavelength: 254 nm), the peak wavelength range thereof is from 430 nm to 600 nm both inclusive. […]

[3] = absorption spectrum of the figures, normal ink

| absorption band in visible region [1, 3] [nm] | absorption peak wavelength in visible region [1, 3] [nm] | fluorescence emission peak wavelength [2] [nm] | maximum absorption wavelength ([1]; Example 1, diluted with pure water 100,000 fold, spectrophotometer U-3200) [nm] | Structure (SMILES) |
| --- | --- | --- | --- | --- |
| ≤ 525 | 490 | 530 |  | O=C([O-])c1ccccc1-c1c2ccc(=O)cc-2oc2cc([O-])ccc12.[Na+].[Na+] [AY73, C.I. Acid Yellow 73] |
|  | 565 | 600 | 565 | CCN(CC)c1ccc2c(-c3ccc(S(=O)(=O)[O-])cc3S(=O)(=O)[O-])c3ccc(=[N+](CC)CC)cc-3oc2c1.[Na+] [C.I. Acid Red 52] |
